Measured values reported in publication PMC10873978, “Novel tetrahydroisoquinolines as DHFR and CDK2 inhibitors: synthesis, characterization, anticancer activity and antioxidant properties” (BMC Chemistry, 2024).
Entries after “also recorded” stand apart in the source; their conditions may differ.

Tests used:
A549 cell line = assay: In vitro cytotoxic activity, MTT method, A549; settings: for IC50: Homo sapiens, read-out: IC50 ± SD
Experimental: (§1) Cell lines: The in vitro human breast cancerous cell line (MCF7), lung cancerous cell lines (A549) and normal cell lines were purchased from Serum and Vaccine formulation in Cairo-Egypt.
(§2) In vitro cytotoxic activity of all synthesized compounds against two human breast cell line (MCF7) and lung cell lines (A549) was evaluated according to the MTT method. Firstly, Growth the cell line medium in 96 well tissue culture plate was injected with 10^5 cells/mL (100 uL/plate well) of the cell line and incubated at 37 °C for 24 h to develop a monolayer sheet then the formed growth medium was poured from 96 well microtiter plates after the confluent sheet of cells. […] Secondly, add 0.1 mL of each concentration tetrahydroisoquinoline sample to each plate. The plates were incubated at 37 °C. Thirdly MTT solution (5 mg/mL in PBS) is prepared. Add 20 µL of MTT solution to each well plates. And shaking in 150 rpm for 5 min, to mix the MTT into the media. Then incubate at (37 °C, 5% CO2) for 1–5 h. Finally read the optical density at 560 nm and subtract background at 620 nm.
(§3) In this work, doxorubicin was used as a positive control drug for comparison with the synthesized compounds under the same experimental conditions.

MCF7 cell line = assay: In vitro cytotoxic activity, MTT method, MCF7; type: cell-based, human; settings: for IC50: Homo sapiens, MCF7, MCF7 cell line, MTT
Experimental: as §1, §2, §3

[1] = DPPH scavenging antioxidant activity; settings: for antioxidant activity compared with Vitamin C: DPPH
Experimental: The antioxidant activity of ten compounds was determined using DPPH [32–34]. A solution 1: prepared by dissolving DPPH (0.002 g) in ethanol (50 mL etnanol). Solution 2: prepared by dissolving different weights 0.05, 0.01 g of each sample in 1 mL of DMSO then take 10 µL of each sample solution with 1 mL ethanol. Then mix 1 mL of solution 1 with 1 mL of solution 2 then vortex the resulting mixture in the dark for about 30 min. The absorbance of the mixture was measured by spectrophotometer at λmax = 517 nm against blank 1 mL absolute ethanol and compared to the ascorbic acid (Vitamin C).
Ten newly synthesized compounds were studied as in vitro antioxidants by measuring of their DPPH scavenging activity which is represented as a percentage % [32]^. Results are represented by mean ± SD of three replicates. […] The higher dose concentration of 0.05 μg/mL represents higher antioxidant activity. […] The high antioxidant activity is referred to the presence of C=O, NH2, and OH groups like ascorbic acid which can be easily oxidized and reduced and can be used as antioxidant drugs. (Fig. 8 and Table 9).

CC(=O)C1C(c2ccc(N(C)C)cc2)c2c(C)[nH]c(=S)c(C#N)c2CC1(C)O (stereo not shown) [Compound 1, 7-Acetyl-4-cyano-1,6-dimethyl-6-hydroxy-8-(4-N,N-dimethylaminophenyl)-5,6,7,8-tetrahydroisoquinoline-3(2H)-thione] gave a Toxicity % (A549 cell line; A549, Conc. 0.0487 µMol) of 1%, a Viability % (A549 cell line; A549, Conc. 0.0487 µMol) of 99% and a Viability % (A549 cell line; A549, Conc. 0.0975 µMol) of 98.2%. The Toxicity % (A549 cell line; A549, Conc. 0.195 µMol) was 3%, the Viability % (A549 cell line; A549, Conc. 0.195 µMol) was 97% and the Toxicity % (A549 cell line; A549, Conc. 0.391 µMol) was 7.89%. It also gave a Viability % (A549 cell line; A549, Conc. 0.391 µMol) of 92.11%, a Toxicity % (A549 cell line; A549, Conc. 0.781 µMol) of 21.85% and a Viability % (A549 cell line; A549, Conc. 0.781 µMol) of 78.15%. For the same molecule, the Toxicity % (A549 cell line; A549, Conc. 1.562 µMol) was 34.99%, the Viability % (A549 cell line; A549, Conc. 1.562 µMol) was 65.01% and the Toxicity % (A549 cell line; A549, Conc. 3.125 µMol) was 59.76%. It also gave a Viability % (A549 cell line; A549, Conc. 3.125 µMol) of 40.24%, a Toxicity % (A549 cell line; A549, Conc. 6.25 µMol) of 76.21% and a Viability % (A549 cell line; A549, Conc. 6.25 µMol) of 23.79%. It also gave a Toxicity % (A549 cell line; A549, Conc. 12.5 µMol) of 90.77%, a Viability % (A549 cell line; A549, Conc. 12.5 µMol) of 9.231% and a Toxicity % (A549 cell line; A549, Conc. 25 µMol) of 96.84%. The Viability % (A549 cell line; A549, Conc. 25 µMol) was 3.156%, the IC50 (A549 cell line) was 2219 ± 2 nM and the IC50 (MCF7 cell line) was 1857 ± 8 nM. The Toxicity % (MCF7 cell line; MCF7, 0.0487 µMol) was 0.2745%, the Viability % (MCF7 cell line; MCF7, 0.0487 µMol) was 99.73% and the Toxicity % (MCF7 cell line; MCF7, 0.0975 µMol) was 0.3246%. For the same molecule, the Viability % (MCF7 cell line; MCF7, 0.0975 µMol) was 99.68%, the Toxicity % (MCF7 cell line; MCF7, 0.195 µMol) was 0.4493% and the Viability % (MCF7 cell line; MCF7, 0.195 µMol) was 99.55%. For the same molecule, the Viability % (MCF7 cell line; MCF7, 0.391 µMol) was 91.95%, the Toxicity % (MCF7 cell line; MCF7, 0.781 µMol) was 23.53% and the Viability % (MCF7 cell line; MCF7, 0.781 µMol) was 76.47%. The Toxicity % (MCF7 cell line; MCF7, 1.562 µMol) was 46.08%, the Viability % (MCF7 cell line; MCF7, 1.562 µMol) was 53.92% and the Toxicity % (MCF7 cell line; MCF7, 3.125 µMol) was 76.35%. The Viability % (MCF7 cell line; MCF7, 3.125 µMol) was 23.65%, the Toxicity % (MCF7 cell line; MCF7, 6.25 µMol) was 86.93% and the Viability % (MCF7 cell line; MCF7, 6.25 µMol) was 13.07%. The Toxicity % (MCF7 cell line; MCF7, 12.5 µMol) was 93.63%, the Viability % (MCF7 cell line; MCF7, 12.5 µMol) was 6.373% and the Toxicity % (MCF7 cell line; MCF7, 25 µMol) was 97.3%. The Viability % (MCF7 cell line; MCF7, 25 µMol) was 2.696%, the “DPPH scavenging, inhibition (%)” value ([1]; 0.01 µg/mL) was 61.01 ± 0.58% and the “DPPH scavenging, inhibition (%)” value ([1]; 0.05 µg/mL) was 92.3 ± 0.44%. For the same molecule, the “antioxidant activity compared with Vitamin C” value [1] was “higher result than Vitamin C; also recorded: higher antioxidant activity than Vitamin C”.

CSc1nc(C)c2c(c1C#N)CC(C)(O)C(C(C)=O)C2c1ccc(N(C)C)cc1 (stereo not shown) [Compound 3, 7-Acetyl-4-cyano-1,6-dimethyl-3-methylthio-6-hydroxy-8-(4-N,N-dimethyl-aminophenyl)-5,6,7,8-tetrahydroisoquinoline] gave a Toxicity % (A549 cell line; A549, Conc. 0.0487 µMol) of 0.30%, a Viability % (A549 cell line; A549, Conc. 0.0487 µMol) of 99.700% and a Toxicity % (A549 cell line; A549, Conc. 0.0975 µMol) of 0.50%. For the same molecule, the Viability % (A549 cell line; A549, Conc. 0.0975 µMol) was 99.50%, the Toxicity % (A549 cell line; A549, Conc. 0.195 µMol) was 0.789% and the Viability % (A549 cell line; A549, Conc. 0.195 µMol) was 99.21%. The Toxicity % (A549 cell line; A549, Conc. 0.391 µMol) was 5.089%, the Viability % (A549 cell line; A549, Conc. 0.391 µMol) was 94.91% and the Toxicity % (A549 cell line; A549, Conc. 0.781 µMol) was 23.59%. The Viability % (A549 cell line; A549, Conc. 0.781 µMol) was 76.41%, the Toxicity % (A549 cell line; A549, Conc. 1.562 µMol) was 38.19% and the Viability % (A549 cell line; A549, Conc. 1.562 µMol) was 61.81%. It also gave a Toxicity % (A549 cell line; A549, Conc. 3.125 µMol) of 53.18%, a Viability % (A549 cell line; A549, Conc. 3.125 µMol) of 46.82% and a Toxicity % (A549 cell line; A549, Conc. 6.25 µMol) of 70.73%. For the same molecule, the Viability % (A549 cell line; A549, Conc. 6.25 µMol) was 29.27%, the Toxicity % (A549 cell line; A549, Conc. 12.5 µMol) was 89.43% and the Viability % (A549 cell line; A549, Conc. 12.5 µMol) was 10.57%. It also gave a Toxicity % (A549 cell line; A549, Conc. 25 µMol) of 96.45%, a Viability % (A549 cell line; A549, Conc. 25 µMol) of 3.55% and an IC50 (A549 cell line) of 2469 ± 6 nM. The IC50 (MCF7 cell line) was 562 ± 7 nM, the Toxicity % (MCF7 cell line; MCF7, 0.0487 µMol) was 5.124% and the Viability % (MCF7 cell line; MCF7, 0.0487 µMol) was 94.876%. It also gave a Toxicity % (MCF7 cell line; MCF7, 0.0975 µMol) of 7.124%, a Viability % (MCF7 cell line; MCF7, 0.0975 µMol) of 92.876% and a Toxicity % (MCF7 cell line; MCF7, 0.195 µMol) of 8.333%. The Viability % (MCF7 cell line; MCF7, 0.195 µMol) was 91.67%, the Toxicity % (MCF7 cell line; MCF7, 0.391 µMol) was 38.81% and the Viability % (MCF7 cell line; MCF7, 0.391 µMol) was 61.19%. The Toxicity % (MCF7 cell line; MCF7, 0.781 µMol) was 66.75%, the Viability % (MCF7 cell line; MCF7, 0.781 µMol) was 33.25% and the Toxicity % (MCF7 cell line; MCF7, 1.562 µMol) was 82.8%. The Viability % (MCF7 cell line; MCF7, 1.562 µMol) was 17.2%, the Toxicity % (MCF7 cell line; MCF7, 3.125 µMol) was 91.22% and the Viability % (MCF7 cell line; MCF7, 3.125 µMol) was 8.783%. It also gave a Toxicity % (MCF7 cell line; MCF7, 6.25 µMol) of 95.14%, a Viability % (MCF7 cell line; MCF7, 6.25 µMol) of 4.861% and a Toxicity % (MCF7 cell line; MCF7, 12.5 µMol) of 97.43%. The Viability % (MCF7 cell line; MCF7, 12.5 µMol) was 2.574%, the Toxicity % (MCF7 cell line; MCF7, 25 µMol) was 97.06% and the Viability % (MCF7 cell line; MCF7, 25 µMol) was 2.941%. The “DPPH scavenging, inhibition (%)” value ([1]; 0.01 µg/mL) was 25.58 ± 2.20%, the “DPPH scavenging, inhibition (%)” value ([1]; 0.05 µg/mL) was 81.39 ± 3.87% and the “antioxidant activity compared with Vitamin C” value [1] was “higher result than Vitamin C; also recorded: higher antioxidant activity than Vitamin C”.
